Results published in patent US20030148970A1, “Methods for specifically inhibiting histone deacetylase-4” (priority 2001, published 2003).
pIC50: −log10 of the molar value.

Assays:
human HDAC-3 = target: T1, human HDAC-3 (Homo sapiens, UniProt O15379); assay: histone deacetylase enzyme assay, HDAC-3; format: biochemical
T1 construct: made in house; host or cells: insect cells (baculovirus expression system)
Method: (§1) The other HDAC isotypes, HDAC-3 and HDAC-4, were purified directly on an anti-Flag affinity column.
(§2) For the deacetylase assay, 20,000 cpm of an [^3H]-metabolically-labeled acetylated histone was used as a substrate. Histones were incubated with cloned recombinant human HDAC enzymes at 37° C. […] All assay conditions were pre-determined to be certain that each reaction was linear. Reactions were stopped by adding acetic acid (0.04 M final concentration) and HCl (250 mM, final concentration). The mixture was extracted with ethyl acetate, and the released [3H]-acetic acid was quantified by liquid scintillation counting. For the inhibition studies, HDAC enzyme was preincubated with test compounds for 30 minutes at 4° C. prior to the start of the enzymatic assay. IC50 values for HDAC enzyme inhibitors were identified with dose response curves for each individual compound and, thereby, obtaining a value for the concentration of inhibitor that produced fifty percent of the maximal inhibition.

human HDAC-4 = target: T2, human HDAC-4 (Homo sapiens, UniProt P56524); assay: histone deacetylase enzyme assay, HDAC-4; format: biochemical
T2 construct: Flag; made in house; host or cells: human embryonic kidney 293 cells (calcium phosphate transfection)
T2 sequence (P56524 whole entry): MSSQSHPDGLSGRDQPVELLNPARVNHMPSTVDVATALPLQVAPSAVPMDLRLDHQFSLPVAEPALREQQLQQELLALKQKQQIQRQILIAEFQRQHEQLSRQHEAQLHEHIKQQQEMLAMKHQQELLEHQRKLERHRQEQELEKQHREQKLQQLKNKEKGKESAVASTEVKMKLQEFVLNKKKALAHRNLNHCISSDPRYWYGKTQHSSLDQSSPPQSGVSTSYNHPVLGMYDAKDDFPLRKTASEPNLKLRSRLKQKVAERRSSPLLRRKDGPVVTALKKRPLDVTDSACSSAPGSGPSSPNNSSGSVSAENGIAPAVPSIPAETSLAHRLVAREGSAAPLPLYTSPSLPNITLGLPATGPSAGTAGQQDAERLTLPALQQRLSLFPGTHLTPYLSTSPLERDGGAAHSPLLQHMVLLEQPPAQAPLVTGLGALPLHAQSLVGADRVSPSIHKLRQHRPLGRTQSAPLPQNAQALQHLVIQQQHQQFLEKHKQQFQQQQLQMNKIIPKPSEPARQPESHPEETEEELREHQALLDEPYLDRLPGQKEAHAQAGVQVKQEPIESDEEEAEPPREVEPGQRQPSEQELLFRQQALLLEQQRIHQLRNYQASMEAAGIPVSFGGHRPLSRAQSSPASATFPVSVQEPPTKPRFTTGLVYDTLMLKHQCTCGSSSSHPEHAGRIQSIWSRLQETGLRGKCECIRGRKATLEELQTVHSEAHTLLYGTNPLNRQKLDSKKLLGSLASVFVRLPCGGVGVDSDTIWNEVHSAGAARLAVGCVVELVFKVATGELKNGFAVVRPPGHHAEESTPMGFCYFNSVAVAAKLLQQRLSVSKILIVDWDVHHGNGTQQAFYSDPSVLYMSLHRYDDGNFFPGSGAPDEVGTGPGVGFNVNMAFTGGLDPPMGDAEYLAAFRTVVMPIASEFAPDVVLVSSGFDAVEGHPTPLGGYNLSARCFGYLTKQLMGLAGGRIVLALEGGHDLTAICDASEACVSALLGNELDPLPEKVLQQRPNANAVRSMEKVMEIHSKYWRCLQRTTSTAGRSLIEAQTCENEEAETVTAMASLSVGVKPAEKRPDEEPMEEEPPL
Method: Flag-tagged human HDAC-4 enzyme was produced in human embronic kidney 293 cells after transformation by the calcium phosphate precipitation method. Briefly, 293 cells were cultured in Dulbecco's Modified Eagle Medium (DMEM) containing 10% fetal bovine serum and antibiotics. Plasmid DNA encoding Flag-tagged human HDAC-4 was precipitated by ethanol and resuspend in sterile water. DNA-calcium precipitates, formed by mixing DNA, calcium choloride and 2×HEPES-buffered saline solution, were left on 293 cells for 12-16 hours. Cells were return to serum-contained DMEM medium and harvested at 48 hour post transfection for purification of Flag-tagged HDAC-4 enzyme.
as §1, §2

[1] = test system: human colon cancer HCT116 cells; assay: MTT assay of cell proliferation and cytotoxicity; format: cell-based; conditions: HCT-116, 48 hours
Method: Four thousand five hundred (4,500) human colon cancer HCT116 cells (ATCC, Manassas, Va. were used in an MTT (3-[4,5-dimethylthiazol-2-yl]-2,5 diphenyl tetrazolium bromide) assay to quantitatively determine cell proliferation and cytotoxicity. Typically, HCT116 cells were plated into each well of the 96-well tissue culture plate and left overnight to attach to the plate. Compounds at various concentrations (1 uM, 5 uM and 25 uM, in DMSO) were added in triplicate into the culture media (final DMSO concentration 1%) and incubated for 48 hours. MTT solution (obtained from Sigma as powder) was added and incubated with the cells for 4 hours at 37° C. in incubator with 5% CO2. During the incubation, viable cells convert MTT to a water-insoluble formazan dye. Solubilizing buffer (50% N,N-dimethylformamide, 20% SDS, pH 4.7) was added to cells and incubate for overnight at 37C in incubator with 5% CO2. Solubilized dye was quantitated by colorimetric reading at […] using a reference of […].

[2] = test system: acetylated histone H-4 in T24 human bladder cancer cells; assay: inhibition of HDAC activity in whole cells (acetylated histone H-4 Western); format: cell-based; conditions: 16 hours
Method: T24 human bladder cancer cells (ATCC, Manassas, Va.) growing in culture were incubated with test compounds for 16 hours. Histones were extracted from the cells by standard procedures (see e.g. Yoshida et al., supra) after the culture period. Twenty μg total core histone protein was loaded onto SDS/PAGE and transferred to nitrocellulose membranes, which were then reacted with polyclonal antibody specific for acetylated histone H-4 (Upstate Biotech Inc., Lake Placid, […].). Horse Radish Peroxidase conjugated secondary antibody was used at a dilution of 1:5000 to detect primary antibody binding. The secondary antibody binding was visualized by use of the Enhanced chemiluminescence (ECL) detection kit (Amersham-Pharmacia Biotech., Inc., Piscataway, N.J.). After exposure to film, acetylated H-4 signal was quantitated by densitometry.

human HDAC-6 = target: T3, human HDAC-6 (Homo sapiens, UniProt Q9UBN7); assay: histone deacetylase enzyme assay, HDAC-6; format: biochemical
T3 construct: made in house; host or cells: insect cells (baculovirus expression system)
T3 sequence (Q9UBN7 1-1215): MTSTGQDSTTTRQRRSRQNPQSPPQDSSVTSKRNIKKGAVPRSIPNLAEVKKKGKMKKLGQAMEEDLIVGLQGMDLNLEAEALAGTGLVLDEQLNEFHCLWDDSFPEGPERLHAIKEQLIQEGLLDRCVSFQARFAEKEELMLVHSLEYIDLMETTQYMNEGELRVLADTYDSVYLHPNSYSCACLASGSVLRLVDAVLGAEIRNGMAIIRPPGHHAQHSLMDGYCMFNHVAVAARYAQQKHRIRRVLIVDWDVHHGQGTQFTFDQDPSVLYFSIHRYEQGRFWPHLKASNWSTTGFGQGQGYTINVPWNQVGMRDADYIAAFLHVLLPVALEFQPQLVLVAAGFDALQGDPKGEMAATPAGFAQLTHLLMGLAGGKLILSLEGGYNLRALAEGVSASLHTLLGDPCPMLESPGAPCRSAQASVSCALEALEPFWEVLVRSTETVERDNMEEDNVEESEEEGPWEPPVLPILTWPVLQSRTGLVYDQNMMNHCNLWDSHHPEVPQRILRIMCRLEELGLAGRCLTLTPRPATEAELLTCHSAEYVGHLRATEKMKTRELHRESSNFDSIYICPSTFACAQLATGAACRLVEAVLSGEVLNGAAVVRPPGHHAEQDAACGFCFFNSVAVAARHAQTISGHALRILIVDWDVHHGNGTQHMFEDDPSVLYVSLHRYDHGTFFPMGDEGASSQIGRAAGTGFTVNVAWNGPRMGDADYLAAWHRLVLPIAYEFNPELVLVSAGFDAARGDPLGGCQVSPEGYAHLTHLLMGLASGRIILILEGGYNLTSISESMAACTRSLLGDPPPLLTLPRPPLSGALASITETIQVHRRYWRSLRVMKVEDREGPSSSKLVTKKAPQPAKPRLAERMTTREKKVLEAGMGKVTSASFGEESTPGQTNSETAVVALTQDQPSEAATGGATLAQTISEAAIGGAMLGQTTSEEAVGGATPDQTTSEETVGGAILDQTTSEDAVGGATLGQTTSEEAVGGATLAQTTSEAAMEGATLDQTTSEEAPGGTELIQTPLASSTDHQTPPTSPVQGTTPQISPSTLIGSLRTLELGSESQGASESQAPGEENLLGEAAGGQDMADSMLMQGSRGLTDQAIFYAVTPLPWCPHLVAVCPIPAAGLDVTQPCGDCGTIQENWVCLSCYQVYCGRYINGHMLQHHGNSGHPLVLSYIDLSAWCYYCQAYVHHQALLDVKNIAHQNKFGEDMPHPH
Method: as §1, §2

human HDAC-1 = target: T4, human HDAC-1 (Homo sapiens, UniProt Q13547); assay: histone deacetylase enzyme assay, HDAC-1; format: biochemical
T4 construct: made in house; host or cells: insect cells (baculovirus expression system)
T4 sequence (Q13547 whole entry): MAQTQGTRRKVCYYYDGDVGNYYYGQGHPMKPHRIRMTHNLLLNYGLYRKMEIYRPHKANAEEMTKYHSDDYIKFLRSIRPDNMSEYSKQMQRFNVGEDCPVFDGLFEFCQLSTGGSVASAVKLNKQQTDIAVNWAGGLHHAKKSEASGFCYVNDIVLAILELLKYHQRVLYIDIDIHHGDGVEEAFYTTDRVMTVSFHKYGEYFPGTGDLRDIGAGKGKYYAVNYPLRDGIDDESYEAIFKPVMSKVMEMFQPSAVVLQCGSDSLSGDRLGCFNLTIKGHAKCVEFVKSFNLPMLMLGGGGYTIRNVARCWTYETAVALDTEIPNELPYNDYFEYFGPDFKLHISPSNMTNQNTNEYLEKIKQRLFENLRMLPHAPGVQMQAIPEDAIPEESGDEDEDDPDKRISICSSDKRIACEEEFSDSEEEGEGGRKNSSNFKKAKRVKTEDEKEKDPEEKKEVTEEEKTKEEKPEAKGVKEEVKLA
Method: as §1, §2

cell cycle arrest = format: cell-based
p21 = p21 induction by small molecules; format: cell-based
HDAC 2 = HDAC 2 (Homo sapiens, UniProt Q92769); assay: histone deacetylase enzyme assay, HDAC 2; format: biochemical
HDAC 2, sequence (Q92769 whole entry): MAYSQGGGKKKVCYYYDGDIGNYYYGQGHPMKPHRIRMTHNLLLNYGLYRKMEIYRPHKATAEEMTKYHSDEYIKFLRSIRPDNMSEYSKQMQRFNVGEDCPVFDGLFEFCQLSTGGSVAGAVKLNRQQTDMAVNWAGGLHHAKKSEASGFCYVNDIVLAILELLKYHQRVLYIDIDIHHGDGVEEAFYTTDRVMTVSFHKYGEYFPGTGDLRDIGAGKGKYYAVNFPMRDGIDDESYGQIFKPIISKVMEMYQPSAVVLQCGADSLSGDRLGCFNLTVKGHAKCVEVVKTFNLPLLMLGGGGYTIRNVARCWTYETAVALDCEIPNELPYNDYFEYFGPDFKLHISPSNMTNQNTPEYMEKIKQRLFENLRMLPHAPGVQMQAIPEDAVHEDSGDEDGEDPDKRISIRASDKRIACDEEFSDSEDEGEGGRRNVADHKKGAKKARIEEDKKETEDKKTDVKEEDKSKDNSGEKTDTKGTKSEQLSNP
Method: as §2

[3] = test system: human colon cancer cells (HCT116); assay: tumor growth in a mouse model, colon; format: in vivo, BALB/c nude mice; conditions: 40 mg/kg body weight/day, i p; vs vehicle-treated mice
Method: Female BALB/c nude mice were obtained from Charles River Laboratories (Charles River, NY) and used at age 8-10 weeks. Human prostate tumor cells (DU145, 2×10^6) or human colon cancer cells (HCT116; 2×10^6) or small lung core A549 2×10^6 were injected subcutaneously in the animal's flank and allowed to form solid tumors. Tumor fragments were serially passaged a minimum of three times, then approximately 30 mg tumor fragments were implanted subcutaneously through a small surgical incision under general anaesthesia. Small molecule inhibitor administration by intraperotineal or oral administration was initiated when the tumors reached a volume of 100 mm^3. For intraperotineal administration, small molecule inhibitors of HDAC (40-50 mg/kg body weight/day) were dissolved in 100% DMSO and administered daily intraperitoneally by injection. For oral administration, small molecule inhibitors of HDAC (40-50 mg/kg body weight/days) were dissolved in a solution containing 65% polyethylene glycol 400 (PEG 400 (Sigma-Aldridge, Mississauga, Ontario, Calif., Catalogue No. P-3265), 5% ethanol, and 30% water. Tumor volumes were monitored twice weekly up to 20 days. Each experimental group contained at least 6-8 animals. Percentage inhibition was calculated using volume of tumor from vehicle-treated mice as controls.

T1 sequence (O15379 whole entry): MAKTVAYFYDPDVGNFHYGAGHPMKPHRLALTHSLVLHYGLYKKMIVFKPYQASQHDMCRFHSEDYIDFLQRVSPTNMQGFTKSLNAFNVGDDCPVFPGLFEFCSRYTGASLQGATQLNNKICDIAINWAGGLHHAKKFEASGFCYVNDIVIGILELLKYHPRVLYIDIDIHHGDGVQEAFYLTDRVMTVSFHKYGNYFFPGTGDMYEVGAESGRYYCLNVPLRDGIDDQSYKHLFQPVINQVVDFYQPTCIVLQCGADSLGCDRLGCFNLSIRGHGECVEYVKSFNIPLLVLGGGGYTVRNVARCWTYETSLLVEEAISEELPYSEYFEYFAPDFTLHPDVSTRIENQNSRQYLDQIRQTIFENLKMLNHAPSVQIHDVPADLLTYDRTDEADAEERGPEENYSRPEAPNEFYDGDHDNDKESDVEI

Row | IC50 (HDAC 2) | Structure (SMILES) | IC50 (human HDAC-3) | IC50 (human HDAC-4) | pIC50 [1] | effective concentration for histone H4 acetylation [2] | IC50 (human HDAC-6) | IC50 (human HDAC-1) | cell cycle arrest EC (cell cycle arrest) | p21 induction (p21) | % inh. of tumor formation in vivo, colon [3]
1 | 25 µM | CC(/C=C/C(=O)Nc1ccccc1N)=C\C(C)C(=O)c1ccc(N(C)C)cc1 (stereo not drawn) [MG 242 9] | 21 µM | 23 µM | 6.00 | 1 µM | > 50 µM | 3 µM | 2 µM | 3 µM | 
2 |  | Cc1ccc(S(=O)(=O)Nc2ccc(/C=C/C(=O)Nc3ccccc3N)cc2)cc1 [MG 376 3] | 45 µM | 28 µM | 5.40 | 5 µM | > 50 µM | 3 µM | 2 µM | 2 µM | 55 (40, i p) %
